Measured values reported in ChEMBL document CHEMBL1201862, “PubChem BioAssay data set” (2004).
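96-well plates; 48 h exposure; 5 concentrations. Endpoints by linear interpolation between flanking doses. Not reached: highest tested concentration assigned. Here, GI50 denotes the concentration required for 50% inhibition of growth.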 Calls of active or inactive are those of the source. Cut-off read from the data, not from the text of the source: active = GI50 up to about 1.1 µM and inactive = higher.

Key:
Assay in all cases: inhibition of tumour cell growth, NCI panel, 48 h
BT-549 = system: BT-549
CAKI-1 = system: CAKI-1
EKVX = system: EKVX
HCT-116 = system: HCT-116
HCT-15 = system: HCT-15
HOP-62 = system: HOP-62
HOP-92 = system: HOP-92
Hs-578T = system: Hs-578T
K562 = system: K562
MOLT-4 = system: MOLT-4
NCI-H226 = system: NCI-H226
OVCAR-4 = system: OVCAR-4
SF-295 = system: SF-295
SK-MEL-2 = system: SK-MEL-2
SNB-19 = system: SNB-19
SNB-75 = system: SNB-75

Compound: COC(=O)C1=C(OC(=O)/C=C/c2ccccc2)C(C(=O)OC)[C@@]2(O)[C@@H](C(=O)OC)[C@H](C)C[C@@H]1[C@@H]2C(=O)OC (stereo partly specified)
- GI50 (BT-549): 15.4 µM (inactive)
- GI50 (CAKI-1): 15.7 µM (inactive)
- GI50 (EKVX): 15.5 µM (inactive)
- GI50 (HCT-116): 24.1 µM (inactive)
- GI50 (HCT-15): 11.7 µM
- GI50 (HOP-62): 19 µM (inactive)
- GI50 (HOP-92): 20.4 µM (inactive)
- GI50 (Hs-578T): 14.7 µM (inactive)
- GI50 (K562): > 100 µM (inactive)
- GI50 (MOLT-4): > 100 µM (inactive)
- GI50 (NCI-H226): 41.1 µM (inactive)
- GI50 (OVCAR-4): 18.2 µM (inactive)
- GI50 (SF-295): 19.9 µM (inactive)
- GI50 (SK-MEL-2): 24.9 µM (inactive)
- GI50 (SNB-19): 26.2 µM (inactive)
- GI50 (SNB-75): 19.4 µM (inactive)

Compound: Cc1cnc2[nH]c(-c3cccc(Cl)c3)cc(=O)c2c1
- GI50 (BT-549): 2.54 µM (inactive)
- GI50 (CAKI-1): 0.0495 µM (active)
- GI50 (EKVX): > 50.1 µM (inactive)
- GI50 (HCT-116): 0.0361 µM (active)
- GI50 (HCT-15): 0.117 µM
- GI50 (HOP-62): 0.0282 µM (active)
- GI50 (HOP-92): > 100 µM (inactive)
- GI50 (Hs-578T): 0.0266 µM (active)
- GI50 (K562): < 0.0151 µM (active)
- GI50 (MOLT-4): 0.0338 µM (active)
- GI50 (NCI-H226): 0.0708 µM (active)
- GI50 (OVCAR-4): > 100 µM (inactive)
- GI50 (SF-295): 0.0169 µM (active)
- GI50 (SK-MEL-2): 0.0889 µM (active)
- GI50 (SNB-19): 0.0769 µM (active)
- GI50 (SNB-75): 0.0378 µM (active)

Compound: COc1c(-c2nc3ccc(N4CCN(C)CC4)cc3[nH]2)cc(OC)c2[nH]c(CO)nc12
- GI50 (BT-549): > 100 µM (inactive)
- GI50 (CAKI-1): > 100 µM (inactive)
- GI50 (EKVX): > 100 µM (inactive)
- GI50 (HCT-116): 58.6 µM (inactive)
- GI50 (HCT-15): > 100 µM
- GI50 (HOP-62): 92.9 µM (inactive)
- GI50 (HOP-92): > 100 µM (inactive)
- GI50 (Hs-578T): > 100 µM (inactive)
- GI50 (K562): > 100 µM (inactive)
- GI50 (MOLT-4): > 100 µM (inactive)
- GI50 (NCI-H226): > 100 µM (inactive)
- GI50 (OVCAR-4): 72.6 µM (inactive)
- GI50 (SF-295): > 100 µM (inactive)
- GI50 (SK-MEL-2): > 100 µM (inactive)
- GI50 (SNB-19): 44.4 µM (inactive)
- GI50 (SNB-75): 48.3 µM (inactive)

Compound: CCOP1(=O)CC(C)=C(Cl)C(O)C1 (stereo unspecified)
- GI50 (BT-549): > 100 µM (inactive)
- GI50 (CAKI-1): > 100 µM (inactive)
- GI50 (EKVX): > 100 µM (inactive)
- GI50 (HCT-116): > 100 µM (inactive)
- GI50 (HCT-15): > 100 µM
- GI50 (HOP-62): > 100 µM (inactive)
- GI50 (HOP-92): > 100 µM (inactive)
- GI50 (Hs-578T): > 100 µM (inactive)
- GI50 (K562): > 100 µM (inactive)
- GI50 (MOLT-4): > 100 µM (inactive)
- GI50 (NCI-H226): > 100 µM (inactive)
- GI50 (OVCAR-4): > 100 µM (inactive)
- GI50 (SF-295): > 100 µM (inactive)
- GI50 (SK-MEL-2): > 100 µM (inactive)
- GI50 (SNB-19): > 100 µM (inactive)
- GI50 (SNB-75): 40.3 µM (inactive)

Compound: Cc1nc2c(O)c3c(c(O)c2nc1C)C1C=CC3CC1
- GI50 (BT-549): 15.7 µM (inactive)
- GI50 (CAKI-1): 7.57 µM (inactive)
- GI50 (EKVX): 11 µM (inactive)
- GI50 (HCT-116): 6.27 µM (inactive)
- GI50 (HCT-15): 17.1 µM
- GI50 (HOP-62): 19.6 µM (inactive)
- GI50 (HOP-92): 2.9 µM (inactive)
- GI50 (Hs-578T): 32.1 µM (inactive)
- GI50 (K562): 2.09 µM (inactive)
- GI50 (MOLT-4): 1.06 µM (active)
- GI50 (NCI-H226): 29.6 µM (inactive)
- GI50 (OVCAR-4): 3.06 µM (inactive)
- GI50 (SF-295): 29.7 µM (inactive)
- GI50 (SK-MEL-2): 11.8 µM (inactive)
- GI50 (SNB-19): > 64.1 µM (inactive)
- GI50 (SNB-75): 32.2 µM (inactive)

Compound: O=C1C(NCCF)=C(Cl)C(=O)c2ncccc21
- GI50 (BT-549): 1.49 µM (inactive)
- GI50 (EKVX): 1.71 µM (inactive)
- GI50 (HCT-116): 1.18 µM (inactive)
- GI50 (HCT-15): 0.461 µM
- GI50 (HOP-62): 1.47 µM (inactive)
- GI50 (HOP-92): 2.08 µM (inactive)
- GI50 (Hs-578T): 1.77 µM (inactive)
- GI50 (K562): 0.206 µM (active)
- GI50 (MOLT-4): 1.22 µM (inactive)
- GI50 (NCI-H226): 1.71 µM (inactive)
- GI50 (SF-295): 1.49 µM (inactive)
- GI50 (SK-MEL-2): 0.179 µM (active)
- GI50 (SNB-19): 1.39 µM (inactive)
- GI50 (SNB-75): 0.617 µM (active)

Compound: COc1cc(C(c2cccc3ccccc23)N2C(=O)CCC2C(=O)NCc2ccccc2)cc(OC)c1OC (stereo unspecified)
- GI50 (BT-549): > 100 µM (inactive)
- GI50 (CAKI-1): > 100 µM (inactive)
- GI50 (EKVX): > 100 µM (inactive)
- GI50 (HCT-116): > 100 µM (inactive)
- GI50 (HCT-15): > 100 µM
- GI50 (HOP-62): > 100 µM (inactive)
- GI50 (HOP-92): > 100 µM (inactive)
- GI50 (Hs-578T): 83.6 µM (inactive)
- GI50 (MOLT-4): 78 µM (inactive)
- GI50 (NCI-H226): > 100 µM (inactive)
- GI50 (OVCAR-4): > 100 µM (inactive)
- GI50 (SF-295): > 100 µM (inactive)
- GI50 (SK-MEL-2): > 100 µM (inactive)
- GI50 (SNB-19): > 100 µM (inactive)

Compound: c1ccc2c(OCC3CO3)ccc(OCC3CO3)c2c1 (stereo unspecified)
- GI50 (BT-549): 6.49 µM (inactive)
- GI50 (CAKI-1): 1.74 µM (inactive)
- GI50 (EKVX): 17.4 µM (inactive)
- GI50 (HCT-116): 1.36 µM (inactive)
- GI50 (HCT-15): 3.85 µM
- GI50 (HOP-62): 3.03 µM (inactive)
- GI50 (HOP-92): 5.57 µM (inactive)
- GI50 (Hs-578T): 5.32 µM (inactive)
- GI50 (K562): 2 µM (inactive)
- GI50 (MOLT-4): 0.352 µM (active)
- GI50 (NCI-H226): 12.1 µM (inactive)
- GI50 (OVCAR-4): 7.05 µM (inactive)
- GI50 (SF-295): 2.86 µM (inactive)
- GI50 (SNB-19): 8.13 µM (inactive)
- GI50 (SNB-75): 14.6 µM (inactive)

Compound: O=c1c(C(c2ccc(O)cc2)c2c(O)oc3ccccc3c2=O)c(O)oc2ccccc12
- GI50 (BT-549): 59.8 µM (inactive)
- GI50 (CAKI-1): 85.9 µM (inactive)
- GI50 (EKVX): > 100 µM (inactive)
- GI50 (HCT-116): > 100 µM (inactive)
- GI50 (HCT-15): 36.6 µM
- GI50 (HOP-62): 96.8 µM (inactive)
- GI50 (HOP-92): 78.5 µM (inactive)
- GI50 (Hs-578T): > 100 µM (inactive)
- GI50 (NCI-H226): > 100 µM (inactive)
- GI50 (OVCAR-4): > 100 µM (inactive)
- GI50 (SK-MEL-2): > 100 µM (inactive)
- GI50 (SNB-19): 71.8 µM (inactive)
- GI50 (SNB-75): 30.9 µM (inactive)

Compound: CC(=O)c1nc2ccccc2n1CC(=O)c1ccc(Cl)cc1
- GI50 (BT-549): 3.55 µM (inactive)
- GI50 (CAKI-1): 5.25 µM (inactive)
- GI50 (EKVX): 38.2 µM (inactive)
- GI50 (HCT-116): 2.01 µM (inactive)
- GI50 (HCT-15): 5.2 µM
- GI50 (HOP-62): 5.85 µM (inactive)
- GI50 (HOP-92): 1.03 µM (active)
- GI50 (Hs-578T): 17.2 µM (inactive)
- GI50 (K562): 1.52 µM (inactive)
- GI50 (MOLT-4): 4.05 µM (inactive)
- GI50 (NCI-H226): 12 µM (inactive)
- GI50 (OVCAR-4): 5.26 µM (inactive)
- GI50 (SF-295): 13.4 µM (inactive)
- GI50 (SK-MEL-2): 14.7 µM (inactive)
- GI50 (SNB-19): 7.4 µM (inactive)

Compound: CCOC(=O)CN1C(=O)c2ccc(NC(=O)C(=O)O)cc2S1(=O)=O
- GI50 (BT-549): > 100 µM (inactive)
- GI50 (CAKI-1): > 100 µM (inactive)
- GI50 (EKVX): > 100 µM (inactive)
- GI50 (HCT-116): > 100 µM (inactive)
- GI50 (HCT-15): > 100 µM
- GI50 (HOP-62): > 100 µM (inactive)
- GI50 (HOP-92): > 100 µM (inactive)
- GI50 (Hs-578T): > 100 µM (inactive)
- GI50 (K562): > 100 µM (inactive)
- GI50 (MOLT-4): > 100 µM (inactive)
- GI50 (NCI-H226): > 100 µM (inactive)
- GI50 (OVCAR-4): > 100 µM (inactive)
- GI50 (SF-295): > 100 µM (inactive)
- GI50 (SK-MEL-2): > 100 µM (inactive)
- GI50 (SNB-19): > 100 µM (inactive)

Compound: O=C(/C=C1\N=C(c2ccccc2)N(c2ccc3c(c2)Sc2cc(N4C(=O)/C(=C/C(=O)/C=C/c5ccccc5)N=C4c4ccccc4)ccc2N3)C1=O)/C=C/c1ccccc1
- GI50 (BT-549): 23.5 µM (inactive)
- GI50 (CAKI-1): 42.6 µM (inactive)
- GI50 (EKVX): 85.7 µM (inactive)
- GI50 (HCT-116): > 100 µM (inactive)
- GI50 (HCT-15): > 100 µM
- GI50 (HOP-62): 48.8 µM (inactive)
- GI50 (HOP-92): 67.5 µM (inactive)
- GI50 (Hs-578T): 33.2 µM (inactive)
- GI50 (K562): 30.8 µM (inactive)
- GI50 (MOLT-4): 41.4 µM (inactive)
- GI50 (OVCAR-4): 20.8 µM (inactive)
- GI50 (SF-295): 23.4 µM (inactive)
- GI50 (SK-MEL-2): 18.4 µM (inactive)
- GI50 (SNB-19): 29.7 µM (inactive)
- GI50 (SNB-75): 17.3 µM (inactive)

Compound: CCCCCCNC(=O)c1cc(NCc2cc(OC)ccc2OC)ccc1O
- GI50 (BT-549): 15.5 µM (inactive)
- GI50 (CAKI-1): 27.2 µM (inactive)
- GI50 (EKVX): 23.9 µM (inactive)
- GI50 (HCT-116): 21.1 µM (inactive)
- GI50 (HCT-15): 21.1 µM
- GI50 (HOP-92): 6.98 µM (inactive)
- GI50 (Hs-578T): 28 µM (inactive)
- GI50 (K562): 14.8 µM (inactive)
- GI50 (MOLT-4): 25.7 µM (inactive)
- GI50 (NCI-H226): 20 µM (inactive)
- GI50 (OVCAR-4): 22.8 µM (inactive)
- GI50 (SF-295): 12 µM (inactive)
- GI50 (SK-MEL-2): 21.7 µM (inactive)
- GI50 (SNB-19): 33 µM (inactive)
- GI50 (SNB-75): 26.1 µM (inactive)
